# Experimental data taken from paper PMC10791743, “Selective CK1α degraders exert antiproliferative activity against a broad range of human cancer cell lines” (Nature Communications, 2024).
# Several values for one entry are separate records, joined by “and”; a condition that tells them apart may be missing. Equal entries are not always repeated. Entries after “also recorded” stand apart in the source; their conditions may differ.
# Columns and labels:
# Type in all cases: cell-based, human
# MOLM-13 cells = assay: MOLM-13 cell viability assay (CTG, 72 h); parameters: key to Cell viability in MOLM-13 cells / cell viability, dose-response replicate values: % viability = 100 − % activity, normalized to controls; settings: for Effect on MOLM-13 cell viability (cytotoxicity) / IC50: CTG 72 h; for IC50: Homo sapiens, MOLM-13, read-out: IC50, MOLM-13 cell growth/viability
# Method: The primary screen was performed in 384-well format using the CellTiter Glo (CTG) luminescent cell viability assay (Promega) as previously described. […] After overnight incubation at 37 °C in a humidified 5% CO2 incubator, cells were treated with compounds in dose–response format using a Pintool on a Biomek FX^P Laboratory Automation Workstation (Beckman Coulter). […] Luminescence signal was measured using an EnVision plate reader (PerkinElmer). […]
# number per well and incubated overnight at 37 °C in a humidified 5 % CO2 incubator. Compounds were transferred to the assay plate from a dose-response plate using a Labcyte Echo 650 Acoustic Liquid Handler (Beckman Coulter , USA). […]
# using Promega’s CellTiter-Glo reagent according to the manufacturer’s recommendation.
# Luminescence was measured on the Envision plate reader (PerkinElmer, USA). Raw luminescence relative light unit (RLU) values for each compound at each concentration were normalized to obtain % activity using the following equation (1): 100 × [(mean(negctrl) – compound)/(mean (negctrl) – mean (posctrl))]. The % activity was converted to % viability using the following equation (2):
# (100 – % activity), and then pooled from replicate experiments prior to fitting. Here, negctrl and posctrl refer to the negative (DMSO) and positive controls (staurosporine) on each plate. Dose-response curves were fit to the Hill equation using the GraphPad Prism (version 10). […]
# UCSD-AML1 cells = assay: CTG viability, UCSD-AML1; settings: for IC50: UCSD-AML cells, replicate values
# Method: After establishing the potency and selectivity of our lead CK1α degraders, we investigated their effect on a panel of AML and ALL cell lines (Fig. 3a).
# The primary screen was performed in 384-well format using the CellTiter Glo (CTG) luminescent cell viability assay (Promega) as previously described. 3630 compounds from the St. Jude proprietary molecular glue library were screened against 9 human cancer cell lines (HD-MB03, MB004, MB002, MHH-CALL4, MOLM-13, TF-1, HEL, OCI-AML3, AML193). Each cell line was cultured in the complete medium recommended by the vendor and seeded in Corning 8804 BC white 384-well assay plates at densities of 1000, 1000, 1500, 7500, 1250, 156, 625, 1250, 1250 cells per well for HD-MB03, MB004, MB002, MHH-CALL4, MOLM-13, TF-1, HEL, OCI-AML, AML193, respectively. After overnight incubation at 37 °C in a humidified 5% CO2 incubator, cells were treated with compounds in dose–response format using a Pintool on a Biomek FX^P Laboratory Automation Workstation (Beckman Coulter). After 72 h of incubation, cell proliferation was assessed using a CellTiter-Glo (CTG) luminescent cell viability assay (Promega) according to the manufacturer’s instructions. Luminescence signal was measured using an EnVision plate reader (PerkinElmer).
# HD-MB03 cell line was obtained from Drs. Milde, Witt and Deubzer[52]. HD-MB03 and MB004 cells were grown in a neurobasal medium supplemented with glutamine, streptomycin, penicillin, B27, EGF, bFGF, and heparin as previously described. MB002 and MB004 cells were obtained from Dr Yoon-Jae Cho[54]. MB002 cells were cultured in 80% neurobasal medium supplemented with glutamine, streptomycin, penicillin, B27, and 20% conditioned media from previous passages; EGF, bFGF, and heparin were also added to the medium. MHH-CALL4, NALM-16, MHH-CALL-2 cells were obtained from the German Collection of Microorganisms and Cell Cultures GmbH (DSMZ, Germany). PER-117 cells were obtained from Telethon Kids Institute (Perth, Australia). The cells were cultured in RPMI1640 medium supplemented with 10% FBS (Hyclone), Penicillin/Streptomycin (100 units/mL), and Glutamine (100 µM) except for MHH-CALL-2 cells where 20% FBS were used. MOLM-13 cells were obtained from DSMZ (ACC 554) and cultured in RPMI-1640 media (Gibco) supplemented with 20% FBS (R&D Systems) and 100 U/ml penicillin-streptomycin (Gibco). HNT-34 cells were purchased from DSMZ (ACC 600) and cultured in RPMI-1640 media supplemented with 20% FBS and 100 U/ml penicillin-streptomycin. Kasumi-3 cells were purchased from ATCC (CRL-2725) and cultured in RPMI-1640 media supplemented with 20% FBS and 100 U/ml penicillin-streptomycin. […]
# p21 = p21 immunoblotting in MOLM-13 cells; settings: for p21 quantified protein expression (western blot): 3 western blots
# [1] = time course 0-8 hrs, relative to no treatment
structure (smiles),measurement,setting,value
Cc1cccc(C(=O)Nc2ccc3c(c2)CN(C2CCC(=O)NC2=O)C3=O)c1 (stereo not shown) [SJ0040],Cell viability in MOLM-13 cells,"MOLM-13 cells; SJ0040 series, Conc 0.000596098",72.251 and 62.2023 and 81.3879
same,Cell viability in MOLM-13 cells,"MOLM-13 cells; SJ0040 series, Conc 0.0017883",82.0109 and 75.8813 and 72.6272
same,Cell viability in MOLM-13 cells,"MOLM-13 cells; SJ0040 series, Conc 0.00536488",61.7374 and 60.0676 and 62.6116
same,Cell viability in MOLM-13 cells,"MOLM-13 cells; SJ0040 series, Conc 0.0160947",47.3097 and 40.7507 and 48.8062
same,Cell viability in MOLM-13 cells,"MOLM-13 cells; SJ0040 series, Conc 0.048284",27.7074 and 26.3493 and 30.1451
same,Cell viability in MOLM-13 cells,"MOLM-13 cells; SJ0040 series, Conc 0.144852",14.8484 and 15.2529 and 14.8047
same,Cell viability in MOLM-13 cells,"MOLM-13 cells; SJ0040 series, Conc 0.434556",9.851 and 9.013 and 9.549
same,Cell viability in MOLM-13 cells,"MOLM-13 cells; SJ0040 series, Conc 1.30367",6.737 and 6.253 and 6.807
same,Cell viability in MOLM-13 cells,"MOLM-13 cells; SJ0040 series, Conc 3.911",4.756 and 5.128 and 7.933
same,IC50,UCSD-AML1 cells; Homo sapiens,3 nM
same,IC50,UCSD-AML1 cells,2.1 nM
O=C1CCC(N2Cc3cc(Nc4noc5ccccc45)ccc3C2=O)C(=O)N1 (stereo not shown) [SJ3149],Effect on MOLM-13 cell viability (cytotoxicity),MOLM-13 cells,more robust effect on the viability of MOLM-13 cells
same,IC50,MOLM-13 cells,13 nM
same,Cell viability in MOLM-13 cells,"MOLM-13 cells; SJ3149 series, Conc 0.000508",101.693 and 103.275 and 101.343
same,Cell viability in MOLM-13 cells,"MOLM-13 cells; SJ3149 series, Conc 0.00152416",101.046 and 101.638 and 102.894
same,Cell viability in MOLM-13 cells,"MOLM-13 cells; SJ3149 series, Conc 0.00457247",93.8551 and 92.4498 and 91.2385
same,Cell viability in MOLM-13 cells,"MOLM-13 cells; SJ3149 series, Conc 0.0137174",62.1406 and 65.1592 and 63.0989
same,Cell viability in MOLM-13 cells,"MOLM-13 cells; SJ3149 series, Conc 0.0411523",25.3582 and 28.4617 and 24.9569
same,Cell viability in MOLM-13 cells,"MOLM-13 cells; SJ3149 series, Conc 0.123457",6.148 and 8.382 and 8.141
same,Cell viability in MOLM-13 cells,"MOLM-13 cells; SJ3149 series, Conc 0.37037",3.25 and 4.028 and 3.791
same,Cell viability in MOLM-13 cells,"MOLM-13 cells; SJ3149 series, Conc 1.11111",2.026 and 2.1314 and 2.9156
same,Cell viability in MOLM-13 cells,"MOLM-13 cells; SJ3149 series, Conc 3.33333",1.946 and 1.78 and 2.069
same,Cell viability in MOLM-13 cells,"MOLM-13 cells; SJ3149 series, Conc 10",0.7978 and 0.8668 and 1.097
same,"p21 induction, time course","p21; MOLM-13, 1 μM, 0-8 h",not present until 4 h; also recorded: does not occur until after 4 hours
same,p21 quantified protein expression (western blot),"p21; time 1 hr, relative to no treatment",0.8518 and 1.28 and 0.8338
same,p21 quantified protein expression (western blot),"p21; time 2 hrs, relative to no treatment",1.31 and 1.5551 and 1.213
same,p21 quantified protein expression (western blot),"p21; time 4 hrs, relative to no treatment",4.341 and 2.673 and 4.158
same,p21 quantified protein expression (western blot),"p21; time 8 hrs, relative to no treatment",4.765 and 2.907 and 5.628
same,"IC50 (line fit, sigmoidal 4PL) of p21 expression versus time","p21; time course 0-8 hrs, X axis is time",3.071
same,"Bottom (line fit, sigmoidal 4PL) of p21 expression versus time",p21; [1],0.988
same,"Top (line fit, sigmoidal 4PL) of p21 expression versus time",p21; [1],4.463
same,Activity against UCSD-AML1 cells,UCSD-AML1 cells; CTG,sub-nanomolar activity
same,IC50,UCSD-AML1 cells,1 nM and 0.4 nM and 1.1 nM
O=C1CCC(N2Cc3c(CNC(=O)c4ccc(F)cc4)cccc3C2=O)C(=O)N1 (stereo not shown) [SJ7095],Effect on MOLM-13 cell viability (cytotoxicity),MOLM-13 cells,high toxicity against MOLM-13 cells
same,IC50,MOLM-13 cells,71 nM
same,Cell viability in MOLM-13 cells,"MOLM-13 cells; SJ7095 series, Conc 0.00049449",80.5902 and 73.7069 and 73.7893
same,Cell viability in MOLM-13 cells,"MOLM-13 cells; SJ7095 series, Conc 0.00148346",82.2036 and 73.2259 and 66.8432
same,Cell viability in MOLM-13 cells,"MOLM-13 cells; SJ7095 series, Conc 0.00445039",62.2665 and 53.3724 and 60.8209
same,Cell viability in MOLM-13 cells,"MOLM-13 cells; SJ7095 series, Conc 0.0133512",41.9606 and 38.8721 and 37.6352
same,Cell viability in MOLM-13 cells,"MOLM-13 cells; SJ7095 series, Conc 0.0400535",36.9208 and 28.2407 and 35.9101
same,Cell viability in MOLM-13 cells,"MOLM-13 cells; SJ7095 series, Conc 0.12016",28.8773 and 35.0792 and 25.4306
same,Cell viability in MOLM-13 cells,"MOLM-13 cells; SJ7095 series, Conc 0.360481",19.8758 and 18.9138 and 19.7816
same,Cell viability in MOLM-13 cells,"MOLM-13 cells; SJ7095 series, Conc 1.08144",22.2039 and 16.4235 and 15.6504
same,Cell viability in MOLM-13 cells,"MOLM-13 cells; SJ7095 series, Conc 3.24433",17.3048 and 13.4196 and 15.362
same,Cell viability in MOLM-13 cells,"MOLM-13 cells; SJ7095 series, Conc 9.733 (unit not given), replicates",7.49 and 6.672 and 5.493
same,p21 protein levels,"p21; MOLM-13, increasing concentrations, 4 h",dose-dependent upregulation of p21
